Patent publication US9845319B2, “Amide substituted thiazoles as modulators of RORyt” (Janssen Pharmaceutica NV, priority 2014, dated 2017)

What was measured:
[1] = tested on: IL-17 production by CD4 T cells; test: Human Th17 Assay; format: cell-based; details: Homo sapiens, CD4+ T, 72 h, read-out: Human Th17 Assay, IC50
Description: The human Th17 assay tests the effect of RORγt modulatory compounds on IL-17 production by CD4 T cells under conditions which favor Th17 differentiation. Total CD4^+ T cells were isolated from the peripheral blood mononuclear cells (PBMC) of healthy donors using a CD4^+ T cell isolation kit II, following the manufacturer's instructions (Miltenyi Biotec). […] 50 μL of compound at titrated concentrations in DMSO were added into each well at final DMSO concentration at 0.2%. Cells were incubated for 1 hour, then 50 μL of Th17 cell differentiation medium was added to each well. The final concentrations of antibodies and cytokines (R&D Systems) in differentiation medium were: 3×10^6/mL anti-CD3/CD28 beads (prepared using human T cell activation/expansion kit, Miltenyi Biotec), 10 μg/mL anti-IL4, 10 μg/mL anti-IFNγ, 10 ng/mL IL1β, 10 ng/mL IL23, 50 ng/mL IL6, 3 ng/mL TGFβ and 20 U/mL IL2. Cells were cultured at 37° C. and 5% CO2 for 3 days. Supernatants were collected and the accumulated IL-17 in culture was measured by using MULTI-SPOT® Cytokine Plate following manufacture's instruction (Meso Scale Discovery). The plate was read using Sector Imager 6000, and IL-17 concentration was extrapolated from the standard curve. The IC50s were determined by GraphPad.

[2] = target: T1, human RORγt ligand binding domain (RORγt LBD) (Homo sapiens, UniProt P51449); test: RORγt ThermoFluor assay; details: estimated from thermal shift concentration response
T1 construct: His-tag (N); TurboTEV protease cleavage site (ENLYFQG) (N); made in house; host or cells: E. coli (pHIS1, a modified pET expression vector)
T1 sequence (P51449 with tags, fused parts or gaps): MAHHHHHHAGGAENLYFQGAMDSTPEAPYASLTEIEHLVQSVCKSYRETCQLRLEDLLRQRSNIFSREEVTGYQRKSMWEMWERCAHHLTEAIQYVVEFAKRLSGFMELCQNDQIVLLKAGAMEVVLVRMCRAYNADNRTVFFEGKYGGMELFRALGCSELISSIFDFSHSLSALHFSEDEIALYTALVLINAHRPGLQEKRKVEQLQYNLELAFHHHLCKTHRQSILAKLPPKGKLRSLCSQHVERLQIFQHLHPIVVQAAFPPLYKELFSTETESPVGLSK
Summary of the method: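 Thermal shift of RORγt LBD (0.065 mg/mL) with 60 μM 1,8-ANS in 100 mM Hepes pH 7.0, NaCl, GSH, 0.002% Tween-20, heated at 1° C/min. ANS fluorescence tracked versus temperature; ΔTm relative to DMSO wells. Compounds serially diluted 1:2 from 10 mM DMSO stock.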

full-length human RORγt = target: T2, full-length human RORγt (Homo sapiens, UniProt P51449); test: RORγt (full-length human) Reporter Assay, Conditions A; format: cell-based; details: for IC50: HEK293T cells, GAL4-DBD-RORγt, luciferase, read-out: RORγt (FL) Reporter Assay A, IC50; for inhibition at 2 µM: read-out: RORγt (FL) Reporter Assay A, % inhibition (* at 2 μM), 2 μM compound concentration (footnote *); for inhibition at 6 µM: read-out: RORγt (FL) Reporter Assay A, % inhibition @ 6 μM, 6 μM compound
T2 construct: expressed in transfected cells; host or cells: HEK293T, transiently transfected with pCMV-BD-ROR
T2 sequence (P51449 1-497 isoform P51449-2): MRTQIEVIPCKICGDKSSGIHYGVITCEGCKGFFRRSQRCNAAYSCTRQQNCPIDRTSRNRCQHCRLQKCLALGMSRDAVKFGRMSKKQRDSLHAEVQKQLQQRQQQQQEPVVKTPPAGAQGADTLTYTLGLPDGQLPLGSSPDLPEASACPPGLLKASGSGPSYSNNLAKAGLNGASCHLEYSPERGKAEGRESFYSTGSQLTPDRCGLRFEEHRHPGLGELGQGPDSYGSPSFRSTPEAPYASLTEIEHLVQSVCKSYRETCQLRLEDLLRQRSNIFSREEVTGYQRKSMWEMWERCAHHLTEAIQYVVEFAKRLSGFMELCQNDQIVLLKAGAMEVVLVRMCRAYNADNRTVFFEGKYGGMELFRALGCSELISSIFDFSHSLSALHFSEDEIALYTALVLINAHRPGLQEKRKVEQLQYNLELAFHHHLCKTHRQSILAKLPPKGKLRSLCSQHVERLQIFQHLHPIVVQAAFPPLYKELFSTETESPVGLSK
Summary of the method: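 Dual-luciferase readout after overnight (16 to 20 hours) treatment: firefly values scaled between DMSO-only and saturating reference-compound controls, then corrected by Renilla. Percent inhibition calculated against DMSO control, with IC50 derived from concentration-response plots.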

`C[C@H](NS(=O)(=O)c1ccc(-c2sc(-c3nnc(C(C)(C)O)o3)nc2C(=O)N2CCC(F)(F)CC2)c(Cl)c1Cl)C(F)(F)F` [Example 4/4, (S)-2,3-Dichloro-4-(4-(4,4-difluoropiperidine-1-carbonyl)-2-(5-(2-hydroxypropan-2-yl)-1,3,4-oxadiazol-2-yl)thiazol-5-yl)-N-(1,1,1-trifluoropropan-2-yl)benzenesulfonamide] showed an IC50 [1] of 15 nM.
In the case of `C[C@H](NS(=O)(=O)c1ccc(-c2sc(-c3cc(C(C)(C)O)on3)nc2C(=O)N2CCC(F)(F)CC2)c(Cl)c1Cl)C(F)(F)F` [Example 13, (S)-2,3-Dichloro-4-(4-(4,4-difluoropiperidine-1-carbonyl)-2-(5-(2-hydroxypropan-2-yl)isoxazol-3-yl)thiazol-5-yl)-N-(1,1,1-trifluoropropan-2-yl)benzenesulfonamide], the Kd [2] is reported as 1.3 nM, the IC50 (full-length human RORγt) is reported as 12 nM and the inhibition at 2 µM (full-length human RORγt) is reported as 105%.
For `C[C@H](NS(=O)(=O)c1ccc(-c2sc(-c3cc(C(C)(C)O)on3)nc2C(=O)N2CCC(F)CC2)c(Cl)c1Cl)C(F)(F)F` [Example 13/1, (S)-2,3-Dichloro-4-(4-(4-fluoropiperidine-1-carbonyl)-2-(5-(2-hydroxypropan-2-yl)isoxazol-3-yl)thiazol-5-yl)-N-(1,1,1-trifluoropropan-2-yl)benzenesulfonamide], the Kd [2] was 4.9 nM, the IC50 (full-length human RORγt) was 21 nM and the inhibition at 2 µM (full-length human RORγt) was 101%.
With `C[C@H](NS(=O)(=O)c1ccc(-c2sc(-c3noc(=O)[nH]3)nc2C(=O)N2CCC(F)CC2)c(Cl)c1Cl)C(F)(F)F` [Example 14, (S)-2,3-Dichloro-4-(4-(4-fluoropiperidine-1-carbonyl)-2-(5-oxo-4,5-dihydro-1,2,4-oxadiazol-3-yl)thiazol-5-yl)-N-(1,1,1-trifluoropropan-2-yl)benzenesulfonamide] the Kd [2] was 280 nM, the IC50 (full-length human RORγt) was over 2000 nM and the inhibition at 2 µM (full-length human RORγt) was -25%.
In the case of `C[C@H](NS(=O)(=O)c1ccc(-c2sc(-c3cnn[nH]3)nc2C(=O)N2CCCC[C@@H]2C)c(Cl)c1Cl)C(F)(F)F` [Example 16, 2,3-Dichloro-4-(4-((S)-2-methylpiperidine-1-carbonyl)-2-(1H-1,2,3-triazol-5-yl)thiazol-5-yl)-N—((S)-1,1,1-trifluoropropan-2-yl)benzenesulfonamide], the Kd [2] is reported as 6.6 nM, the IC50 (full-length human RORγt) is reported as 14 nM and the inhibition at 2 µM (full-length human RORγt) is reported as 100%.
`CCN(CC)C(=O)c1nc(-c2cccc(C(C)(C)O)n2)sc1-c1ccc(S(=O)(=O)N[C@@H](C)C(F)(F)F)c(Cl)c1Cl` [Example 17, (S)-5-(2,3-Dichloro-4-(N-(1,1,1-trifluoropropan-2-yl)sulfamoyl)phenyl)-N,N-diethyl-2-(6-(2-hydroxypropan-2-yl)pyridin-2-yl)thiazole-4-carboxamide] gave a Kd [2] of 7.1 nM, an IC50 (full-length human RORγt) of 14 nM and an inhibition at 2 µM (full-length human RORγt) of 104%.
`CCN(CC)C(=O)c1nc(-c2cc(C(C)(C)O)ccn2)sc1-c1ccc(S(=O)(=O)N[C@@H](C)C(F)(F)F)c(Cl)c1Cl` [Example 17/1, (S)-5-(2,3-Dichloro-4-(N-(1,1,1-trifluoropropan-2-yl)sulfamoyl)phenyl)-N,N-diethyl-2-(4-(2-hydroxypropan-2-yl)pyridin-2-yl)thiazole-4-carboxamide] showed a Kd [2] of 7.8 nM, an inhibition at 0.22 µM (full-length human RORγt; 0.22 μM compound concentration (footnote ***), read-out: RORγt (FL) Reporter Assay A, % inhibition (*** at 0.22 μM)) of 91% and an IC50 (full-length human RORγt) of 27 nM.
Compound `CCN(CC)C(=O)c1nc(-c2cc(C(C)(C)O)ncn2)sc1-c1ccc(S(=O)(=O)N[C@@H](C)C(F)(F)F)c(Cl)c1Cl` [Example 17/2, (S)-5-(2,3-Dichloro-4-(N-(1,1,1-trifluoropropan-2-yl)sulfamoyl)phenyl)-N,N-diethyl-2-(6-(2-hydroxypropan-2-yl)pyrimidin-4-yl)thiazole-4-carboxamide] has a Kd [2] of 2.8 nM, an inhibition at 0.67 µM (full-length human RORγt; 0.67 μM compound concentration, read-out: RORγt (FL) Reporter Assay A, % inhibition (** at 0.67 μM)) of 106% and an IC50 (full-length human RORγt) of 31 nM.
For `CC[C@H](NS(=O)(=O)c1ccc(-c2sc(-c3cccc(CC(C)(C)C(=O)O)n3)nc2C(=O)N2CC(F)(F)C[C@@H]2C)c(C(F)F)c1F)C(F)(F)F` [Example 19/1, 3-(6-(4-((S)-4,4-Difluoro-2-methylpyrrolidine-1-carbonyl)-5-(2-(difluoromethyl)-3-fluoro-4-(N—((S)-1,1,1-trifluorobutan-2-yl)sulfamoyl)phenyl)thiazol-2-yl)pyridin-2-yl)-2,2-dimethylpropanoic acid], the Kd [2] was 0.023 nM, the IC50 (full-length human RORγt) was 10 nM and the inhibition at 2 µM (full-length human RORγt) was 98%.
Compound `C[C@H]1CCCCN1C(=O)c1nc(-c2noc(CC(C)(C)C(=O)O)n2)sc1-c1ccc(C(O)(C(F)(F)F)C(F)(F)F)c(Cl)c1Cl` [Example 20, (S)-3-(3-(5-(2,3-Dichloro-4-(1,1,1,3,3,3-hexafluoro-2-hydroxypropan-2-yl)phenyl)-4-(2-methylpiperidine-1-carbonyl)thiazol-2-yl)-1,2,4-oxadiazol-5-yl)-2,2-dimethylpropanoic acid] has a Kd [2] of 0.026 nM, an IC50 (full-length human RORγt) of 12 nM and an inhibition at 2 µM (full-length human RORγt) of 101%.
Compound `CC1(NS(=O)(=O)c2ccc(-c3sc(-c4nnc(C(C)(C)O)o4)nc3C(=O)N3CCC(F)(F)CC3)c(Cl)c2Cl)CC1` [Example 21, 2,3-Dichloro-4-(4-(4,4-difluoropiperidine-1-carbonyl)-2-(5-(2-hydroxypropan-2-yl)-1,3,4-oxadiazol-2-yl)thiazol-5-yl)-N-(1-methylcyclopropyl)benzenesulfonamide] has a Kd [2] of 4.7 nM, an IC50 (full-length human RORγt) of 67 nM and an inhibition at 6 µM (full-length human RORγt) of 107%.
In the case of `C[C@H](NS(=O)(=O)c1ccc(-c2sc(-c3nnc(C(C)(C)O)o3)nc2C(=O)N2CCC(F)(F)CC2)c2c1CCCO2)C(F)(F)F` [Example 24, 8-(4-(4,4-Difluoropiperidine-1-carbonyl)-2-(5-(2-hydroxypropan-2-yl)-1,3,4-oxadiazol-2-yl)thiazol-5-yl)-N—((S)-1,1,1-trifluoropropan-2-yl)chroman-5-sulfonamide], the Kd [2] is reported as 5.2 nM, the IC50 (full-length human RORγt) is reported as 190 nM and the inhibition at 6 µM (full-length human RORγt) is reported as 97%.
Work on `C[C@H](NS(=O)(=O)c1ccc(-c2sc(-c3nnc(C(C)(C)O)o3)nc2C(=O)N2CCC(F)(F)CC2)c(F)c1C(F)(F)F)C(F)(F)F` [Example 25, 4-(4-(4,4-Difluoropiperidine-1-carbonyl)-2-(5-(2-hydroxypropan-2-yl)-1,3,4-oxadiazol-2-yl)thiazol-5-yl)-3-fluoro-2-(trifluoromethyl)-N—((S)-1,1,1-trifluoropropan-2-yl)benzenesulfonamide] yielded a Kd [2] of 10 nM, an IC50 (full-length human RORγt) of 93 nM and an inhibition at 6 µM (full-length human RORγt) of 98%.
For `Cc1c(S(=O)(=O)N[C@@H](C)C(F)(F)F)ccc(-c2sc(-c3nnc(C(C)(C)O)o3)nc2C(=O)N2CCC(F)(F)CC2)c1F` [Example 26, 4-(4-(4,4-Difluoropiperidine-1-carbonyl)-2-(5-(2-hydroxypropan-2-yl)-1,3,4-oxadiazol-2-yl)thiazol-5-yl)-3-fluoro-2-methyl-N—((S)-1,1,1-trifluoropropan-2-yl)benzenesulfonamide], the Kd [2] was 5 nM, the IC50 (full-length human RORγt) was 86 nM and the inhibition at 6 µM (full-length human RORγt) was 107%.
